Assays:
Assay in all cases: biochemical
Set-up in all cases: KINOMEscan competition binding panel (Eurofins DiscoverX), single concentration, percent inhibition
Details in all cases: read-out: 15 at 1 µM % inhibition
[1] = biological target: AKT1 (Homo sapiens, UniProt P31749)
Method in brief: (§1)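 Binding was profiled in the KINOMEscan panel of over 400 human kinases, with each compound tested at a single concentration of 1 µM to map selectivity.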

[2] = biological target: AKT3 (Homo sapiens, UniProt Q9Y243)
Method in brief: as §1

[3] = biological target: T1, BRK (Homo sapiens, UniProt Q13882)
T1 construct: gene PTK6
Method in brief: as §1

[4] = biological target: EGFR(L747-E749del, A750P) (Homo sapiens, UniProt P00533, A750P/DEL747-749)
Method in brief: as §1

[5] = biological target: FLT1 (Homo sapiens, UniProt P17948)
Method in brief: as §1

[6] = biological target: FLT3(ITD,F691L) (Homo sapiens, UniProt P36888, F691L/ITD)
Method in brief: as §1

[7] = biological target: FRK (Homo sapiens, UniProt P42685)
Method in brief: as §1

[8] = biological target: HASPIN (Homo sapiens, UniProt Q8TF76)
Method in brief: as §1

[9] = biological target: T2, IKK-epsilon (Homo sapiens, UniProt Q14164)
T2 construct: gene IKBKE
Method in brief: as §1

[10] = biological target: INSR (Homo sapiens, UniProt P06213)
Method in brief: as §1

[11] = biological target: IRAK4 (Homo sapiens, UniProt Q9NWZ3)
Method in brief: as §1

[12] = biological target: MAP4K3 (Homo sapiens, UniProt Q8IVH8)
Method in brief: as §1

[13] = biological target: T3, MRCKB (Homo sapiens, UniProt Q9Y5S2)
T3 construct: gene CDC42BPB
Method in brief: as §1

[14] = biological target: MST1R (Homo sapiens, UniProt Q04912)
Method in brief: as §1

[15] = biological target: MUSK (Homo sapiens, UniProt O15146)
Method in brief: as §1

[16] = biological target: PAK6 (Homo sapiens, UniProt Q9NQU5)
Method in brief: as §1

[17] = biological target: PIK3CA(M1043I) (Homo sapiens, UniProt P42336, M1043I)
Method in brief: as §1

[18] = biological target: T4, PIP5K2C (Homo sapiens, UniProt Q8TBX8)
T4 construct: gene PIP4K2C
Method in brief: as §1

[19] = biological target: PRKX (Homo sapiens, UniProt P51817)
Method in brief: as §1

[20] = biological target: SRPK2 (Homo sapiens, UniProt P78362)
Method in brief: as §1

[21] = biological target: STK33 (Homo sapiens, UniProt Q9BYT3)
Method in brief: as §1

[22] = biological target: TESK1 (Homo sapiens, UniProt Q15569)
Method in brief: as §1

[23] = biological target: TRPM6 (Homo sapiens, UniProt Q9BX84)
Method in brief: as §1

[24] = biological target: T5, ZAK (Homo sapiens, UniProt Q9NYL2)
T5 construct: gene MAP3K20
Method in brief: as §1

AKT3, sequence (Q9Y243 whole entry): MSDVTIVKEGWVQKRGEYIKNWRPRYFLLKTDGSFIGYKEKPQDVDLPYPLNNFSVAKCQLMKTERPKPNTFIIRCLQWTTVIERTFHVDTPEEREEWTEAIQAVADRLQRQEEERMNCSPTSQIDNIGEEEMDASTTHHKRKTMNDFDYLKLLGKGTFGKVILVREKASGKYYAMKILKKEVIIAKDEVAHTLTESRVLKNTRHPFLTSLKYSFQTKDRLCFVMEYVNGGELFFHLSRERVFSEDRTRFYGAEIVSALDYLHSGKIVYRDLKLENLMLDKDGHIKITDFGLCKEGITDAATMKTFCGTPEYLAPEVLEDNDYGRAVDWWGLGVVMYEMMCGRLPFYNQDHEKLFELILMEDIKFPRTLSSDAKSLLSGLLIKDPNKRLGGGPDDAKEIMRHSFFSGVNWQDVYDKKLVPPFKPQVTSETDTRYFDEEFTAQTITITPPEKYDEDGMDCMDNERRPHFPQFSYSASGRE
IRAK4, sequence (Q9NWZ3 whole entry): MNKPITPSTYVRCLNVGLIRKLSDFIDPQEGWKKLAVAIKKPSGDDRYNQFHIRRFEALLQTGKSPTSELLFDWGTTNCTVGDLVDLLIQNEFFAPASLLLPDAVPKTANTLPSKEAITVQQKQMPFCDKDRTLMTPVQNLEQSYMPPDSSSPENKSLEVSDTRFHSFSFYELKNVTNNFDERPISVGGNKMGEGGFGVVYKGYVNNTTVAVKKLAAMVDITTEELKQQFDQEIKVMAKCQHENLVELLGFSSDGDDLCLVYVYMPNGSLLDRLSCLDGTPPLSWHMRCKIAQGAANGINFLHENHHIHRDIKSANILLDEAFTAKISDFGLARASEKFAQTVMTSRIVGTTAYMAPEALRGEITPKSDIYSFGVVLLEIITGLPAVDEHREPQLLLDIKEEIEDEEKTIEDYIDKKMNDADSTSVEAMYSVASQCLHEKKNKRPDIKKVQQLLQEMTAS
T1 sequence (Q13882 whole entry): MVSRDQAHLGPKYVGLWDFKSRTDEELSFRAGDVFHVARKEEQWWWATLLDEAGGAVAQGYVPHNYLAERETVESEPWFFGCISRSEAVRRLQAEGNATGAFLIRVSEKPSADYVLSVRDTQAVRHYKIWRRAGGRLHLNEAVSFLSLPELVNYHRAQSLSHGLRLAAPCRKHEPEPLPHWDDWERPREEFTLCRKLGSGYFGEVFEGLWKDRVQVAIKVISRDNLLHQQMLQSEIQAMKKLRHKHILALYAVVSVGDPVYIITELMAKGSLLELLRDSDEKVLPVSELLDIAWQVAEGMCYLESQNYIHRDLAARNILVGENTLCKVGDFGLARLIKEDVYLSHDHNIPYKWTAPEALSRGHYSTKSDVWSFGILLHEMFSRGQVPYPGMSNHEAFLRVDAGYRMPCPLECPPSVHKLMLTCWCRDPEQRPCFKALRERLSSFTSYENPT
T3 sequence (Q9Y5S2 whole entry): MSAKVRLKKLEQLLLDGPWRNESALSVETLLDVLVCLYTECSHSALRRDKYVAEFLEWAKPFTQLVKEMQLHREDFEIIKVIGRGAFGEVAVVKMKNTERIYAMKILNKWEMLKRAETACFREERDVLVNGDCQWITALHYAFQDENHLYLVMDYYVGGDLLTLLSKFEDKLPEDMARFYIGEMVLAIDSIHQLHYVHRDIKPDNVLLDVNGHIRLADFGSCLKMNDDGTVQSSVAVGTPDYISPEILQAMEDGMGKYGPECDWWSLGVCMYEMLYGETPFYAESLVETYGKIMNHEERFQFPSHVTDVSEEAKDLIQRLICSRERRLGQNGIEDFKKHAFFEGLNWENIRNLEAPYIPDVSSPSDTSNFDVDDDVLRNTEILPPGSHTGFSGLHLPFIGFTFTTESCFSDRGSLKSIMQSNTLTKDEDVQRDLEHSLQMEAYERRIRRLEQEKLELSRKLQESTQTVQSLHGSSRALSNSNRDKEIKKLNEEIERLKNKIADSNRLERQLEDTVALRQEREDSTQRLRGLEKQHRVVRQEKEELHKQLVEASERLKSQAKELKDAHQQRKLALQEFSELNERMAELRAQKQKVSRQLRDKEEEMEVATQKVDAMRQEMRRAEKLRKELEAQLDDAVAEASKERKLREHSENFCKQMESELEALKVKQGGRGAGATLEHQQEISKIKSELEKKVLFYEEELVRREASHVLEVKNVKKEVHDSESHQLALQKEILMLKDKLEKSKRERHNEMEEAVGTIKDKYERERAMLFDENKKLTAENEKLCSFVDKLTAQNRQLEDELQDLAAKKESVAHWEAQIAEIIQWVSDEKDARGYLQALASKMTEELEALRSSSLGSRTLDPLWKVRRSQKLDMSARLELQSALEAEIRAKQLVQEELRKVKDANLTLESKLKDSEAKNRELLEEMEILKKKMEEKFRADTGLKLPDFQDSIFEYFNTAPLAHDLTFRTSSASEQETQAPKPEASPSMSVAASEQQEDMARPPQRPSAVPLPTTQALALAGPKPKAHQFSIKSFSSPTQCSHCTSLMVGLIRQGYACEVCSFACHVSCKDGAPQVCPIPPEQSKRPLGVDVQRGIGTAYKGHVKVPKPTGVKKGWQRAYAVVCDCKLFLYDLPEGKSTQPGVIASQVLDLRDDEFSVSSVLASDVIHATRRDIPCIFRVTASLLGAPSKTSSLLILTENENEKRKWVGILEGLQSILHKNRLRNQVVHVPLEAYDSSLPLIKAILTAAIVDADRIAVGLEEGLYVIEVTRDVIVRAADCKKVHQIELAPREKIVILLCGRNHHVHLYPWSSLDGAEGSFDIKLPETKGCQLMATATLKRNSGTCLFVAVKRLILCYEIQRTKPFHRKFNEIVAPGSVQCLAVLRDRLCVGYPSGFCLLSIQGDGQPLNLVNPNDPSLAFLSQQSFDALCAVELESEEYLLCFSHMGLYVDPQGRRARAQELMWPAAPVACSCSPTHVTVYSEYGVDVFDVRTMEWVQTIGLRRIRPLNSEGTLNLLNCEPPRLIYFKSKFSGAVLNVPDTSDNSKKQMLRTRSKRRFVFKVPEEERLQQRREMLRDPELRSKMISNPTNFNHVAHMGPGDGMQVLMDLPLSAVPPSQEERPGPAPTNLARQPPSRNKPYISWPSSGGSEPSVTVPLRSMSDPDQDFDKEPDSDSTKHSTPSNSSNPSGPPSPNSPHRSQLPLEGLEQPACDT
MST1R, sequence (Q04912 whole entry): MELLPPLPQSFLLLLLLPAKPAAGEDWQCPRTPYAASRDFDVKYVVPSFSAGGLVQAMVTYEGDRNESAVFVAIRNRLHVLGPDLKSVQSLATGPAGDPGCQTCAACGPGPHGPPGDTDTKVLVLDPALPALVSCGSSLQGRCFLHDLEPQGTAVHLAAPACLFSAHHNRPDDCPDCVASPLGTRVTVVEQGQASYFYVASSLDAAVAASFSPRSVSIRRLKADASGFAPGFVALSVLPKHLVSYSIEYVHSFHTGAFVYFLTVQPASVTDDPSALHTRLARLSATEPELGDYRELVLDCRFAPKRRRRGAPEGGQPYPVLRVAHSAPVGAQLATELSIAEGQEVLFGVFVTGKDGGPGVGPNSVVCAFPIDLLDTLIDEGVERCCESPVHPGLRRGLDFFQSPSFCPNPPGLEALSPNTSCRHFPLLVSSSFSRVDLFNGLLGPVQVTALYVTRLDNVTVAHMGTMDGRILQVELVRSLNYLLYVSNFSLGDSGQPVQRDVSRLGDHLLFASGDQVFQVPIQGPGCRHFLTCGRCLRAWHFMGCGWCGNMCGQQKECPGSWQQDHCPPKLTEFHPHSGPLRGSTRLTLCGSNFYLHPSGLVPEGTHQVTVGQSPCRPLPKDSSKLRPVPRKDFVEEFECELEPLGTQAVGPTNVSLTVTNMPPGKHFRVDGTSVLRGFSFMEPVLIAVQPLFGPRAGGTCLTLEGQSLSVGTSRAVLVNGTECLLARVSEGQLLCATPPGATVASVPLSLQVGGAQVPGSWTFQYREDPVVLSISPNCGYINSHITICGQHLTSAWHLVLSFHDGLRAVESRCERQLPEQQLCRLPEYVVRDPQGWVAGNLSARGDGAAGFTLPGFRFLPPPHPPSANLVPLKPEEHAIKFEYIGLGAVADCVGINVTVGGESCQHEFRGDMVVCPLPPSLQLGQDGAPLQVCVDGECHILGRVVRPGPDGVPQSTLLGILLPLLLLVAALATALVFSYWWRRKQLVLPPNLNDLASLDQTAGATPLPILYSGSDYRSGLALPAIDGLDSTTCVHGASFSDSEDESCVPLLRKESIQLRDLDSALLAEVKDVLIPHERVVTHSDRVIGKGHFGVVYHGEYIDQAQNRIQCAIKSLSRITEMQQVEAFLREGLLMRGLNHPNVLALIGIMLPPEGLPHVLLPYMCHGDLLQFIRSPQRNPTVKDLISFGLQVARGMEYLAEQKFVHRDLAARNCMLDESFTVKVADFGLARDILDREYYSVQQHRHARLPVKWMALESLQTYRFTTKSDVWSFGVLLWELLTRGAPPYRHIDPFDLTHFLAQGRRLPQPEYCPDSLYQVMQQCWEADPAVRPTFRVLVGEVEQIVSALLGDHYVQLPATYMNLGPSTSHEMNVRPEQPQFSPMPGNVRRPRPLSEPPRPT
T4 sequence (Q8TBX8 whole entry): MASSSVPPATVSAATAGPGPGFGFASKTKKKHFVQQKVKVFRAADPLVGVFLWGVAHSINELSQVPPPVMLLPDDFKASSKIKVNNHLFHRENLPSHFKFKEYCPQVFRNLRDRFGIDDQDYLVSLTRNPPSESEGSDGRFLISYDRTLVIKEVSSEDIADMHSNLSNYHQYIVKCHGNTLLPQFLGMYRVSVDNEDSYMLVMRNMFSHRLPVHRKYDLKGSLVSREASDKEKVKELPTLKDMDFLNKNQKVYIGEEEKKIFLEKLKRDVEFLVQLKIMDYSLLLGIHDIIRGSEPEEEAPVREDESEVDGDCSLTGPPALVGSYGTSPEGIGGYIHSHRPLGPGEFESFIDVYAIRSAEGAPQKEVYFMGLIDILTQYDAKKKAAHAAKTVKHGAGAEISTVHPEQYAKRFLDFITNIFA

inhibition at 1 µM [1]: 0%
inhibition at 1 µM [2]: 4%
inhibition at 1 µM [3]: 0%
inhibition at 1 µM [4]: 0%
inhibition at 1 µM [5]: 0%
inhibition at 1 µM [6]: 0%
inhibition at 1 µM [7]: 0%
inhibition at 1 µM [8]: 0%
inhibition at 1 µM [9]: 0%
inhibition at 1 µM [10]: 11%
inhibition at 1 µM [11]: 0%
inhibition at 1 µM [12]: 0%
inhibition at 1 µM [13]: 1%
inhibition at 1 µM [14]: 9%
inhibition at 1 µM [15]: 0%
inhibition at 1 µM [16]: 3%
inhibition at 1 µM [17]: 0%
inhibition at 1 µM [18]: 18%
inhibition at 1 µM [19]: 0%
inhibition at 1 µM [20]: 16%
inhibition at 1 µM [21]: 0%
inhibition at 1 µM [22]: 1%
inhibition at 1 µM [23]: 6%
inhibition at 1 µM [24]: 1%
Structure (SMILES): CNS(=O)(=O)c1ccc(N(C)C)c(Nc2nc(C)nc3cc(OC)c(OC)cc23)c1 [compound 15, 3-((6,7-dimethoxy-2-methylquinazolin-4-yl)amino)-4-(dimethylamino)-N-methylbenzenesulfonamide]

From article PMC7180948, “New Insights into 4-Anilinoquinazolines as Inhibitors of Cardiac Troponin I–Interacting Kinase (TNNi3K)” (Molecules, 2020)
